{"source": "ChEMBL document CHEMBL1770059", "about": "“Identification of chemicals to inhibit the kinase activity of leucine-rich repeat kinase 2 (LRRK2), a Parkinson's disease-associated protein” (Bioorg Med Chem Lett, 2011)", "key": {"[1]": {"molecular_target": "Casein kinase I isoform alpha (Homo sapiens) (UniProt P48729)", "sequence (P48729 2-337 limits assumed)": "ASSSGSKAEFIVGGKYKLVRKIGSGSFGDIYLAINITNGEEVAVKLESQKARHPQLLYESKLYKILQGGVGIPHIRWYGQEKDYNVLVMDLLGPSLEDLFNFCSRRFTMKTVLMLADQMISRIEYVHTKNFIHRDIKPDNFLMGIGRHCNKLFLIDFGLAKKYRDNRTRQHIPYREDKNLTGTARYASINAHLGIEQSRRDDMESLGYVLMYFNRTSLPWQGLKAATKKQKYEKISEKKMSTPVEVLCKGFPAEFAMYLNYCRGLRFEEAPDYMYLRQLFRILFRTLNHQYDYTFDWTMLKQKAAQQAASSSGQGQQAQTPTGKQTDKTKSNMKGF", "test": "Inhibition of CK1 assessed as residual activity of enzyme at 10 uM"}, "[2]": {"molecular_target": "Leucine-rich repeat serine/threonine-protein kinase 2 (Homo sapiens, UniProt Q5S007, G2019S)", "sequence (Q5S007 whole entry G2019S)": "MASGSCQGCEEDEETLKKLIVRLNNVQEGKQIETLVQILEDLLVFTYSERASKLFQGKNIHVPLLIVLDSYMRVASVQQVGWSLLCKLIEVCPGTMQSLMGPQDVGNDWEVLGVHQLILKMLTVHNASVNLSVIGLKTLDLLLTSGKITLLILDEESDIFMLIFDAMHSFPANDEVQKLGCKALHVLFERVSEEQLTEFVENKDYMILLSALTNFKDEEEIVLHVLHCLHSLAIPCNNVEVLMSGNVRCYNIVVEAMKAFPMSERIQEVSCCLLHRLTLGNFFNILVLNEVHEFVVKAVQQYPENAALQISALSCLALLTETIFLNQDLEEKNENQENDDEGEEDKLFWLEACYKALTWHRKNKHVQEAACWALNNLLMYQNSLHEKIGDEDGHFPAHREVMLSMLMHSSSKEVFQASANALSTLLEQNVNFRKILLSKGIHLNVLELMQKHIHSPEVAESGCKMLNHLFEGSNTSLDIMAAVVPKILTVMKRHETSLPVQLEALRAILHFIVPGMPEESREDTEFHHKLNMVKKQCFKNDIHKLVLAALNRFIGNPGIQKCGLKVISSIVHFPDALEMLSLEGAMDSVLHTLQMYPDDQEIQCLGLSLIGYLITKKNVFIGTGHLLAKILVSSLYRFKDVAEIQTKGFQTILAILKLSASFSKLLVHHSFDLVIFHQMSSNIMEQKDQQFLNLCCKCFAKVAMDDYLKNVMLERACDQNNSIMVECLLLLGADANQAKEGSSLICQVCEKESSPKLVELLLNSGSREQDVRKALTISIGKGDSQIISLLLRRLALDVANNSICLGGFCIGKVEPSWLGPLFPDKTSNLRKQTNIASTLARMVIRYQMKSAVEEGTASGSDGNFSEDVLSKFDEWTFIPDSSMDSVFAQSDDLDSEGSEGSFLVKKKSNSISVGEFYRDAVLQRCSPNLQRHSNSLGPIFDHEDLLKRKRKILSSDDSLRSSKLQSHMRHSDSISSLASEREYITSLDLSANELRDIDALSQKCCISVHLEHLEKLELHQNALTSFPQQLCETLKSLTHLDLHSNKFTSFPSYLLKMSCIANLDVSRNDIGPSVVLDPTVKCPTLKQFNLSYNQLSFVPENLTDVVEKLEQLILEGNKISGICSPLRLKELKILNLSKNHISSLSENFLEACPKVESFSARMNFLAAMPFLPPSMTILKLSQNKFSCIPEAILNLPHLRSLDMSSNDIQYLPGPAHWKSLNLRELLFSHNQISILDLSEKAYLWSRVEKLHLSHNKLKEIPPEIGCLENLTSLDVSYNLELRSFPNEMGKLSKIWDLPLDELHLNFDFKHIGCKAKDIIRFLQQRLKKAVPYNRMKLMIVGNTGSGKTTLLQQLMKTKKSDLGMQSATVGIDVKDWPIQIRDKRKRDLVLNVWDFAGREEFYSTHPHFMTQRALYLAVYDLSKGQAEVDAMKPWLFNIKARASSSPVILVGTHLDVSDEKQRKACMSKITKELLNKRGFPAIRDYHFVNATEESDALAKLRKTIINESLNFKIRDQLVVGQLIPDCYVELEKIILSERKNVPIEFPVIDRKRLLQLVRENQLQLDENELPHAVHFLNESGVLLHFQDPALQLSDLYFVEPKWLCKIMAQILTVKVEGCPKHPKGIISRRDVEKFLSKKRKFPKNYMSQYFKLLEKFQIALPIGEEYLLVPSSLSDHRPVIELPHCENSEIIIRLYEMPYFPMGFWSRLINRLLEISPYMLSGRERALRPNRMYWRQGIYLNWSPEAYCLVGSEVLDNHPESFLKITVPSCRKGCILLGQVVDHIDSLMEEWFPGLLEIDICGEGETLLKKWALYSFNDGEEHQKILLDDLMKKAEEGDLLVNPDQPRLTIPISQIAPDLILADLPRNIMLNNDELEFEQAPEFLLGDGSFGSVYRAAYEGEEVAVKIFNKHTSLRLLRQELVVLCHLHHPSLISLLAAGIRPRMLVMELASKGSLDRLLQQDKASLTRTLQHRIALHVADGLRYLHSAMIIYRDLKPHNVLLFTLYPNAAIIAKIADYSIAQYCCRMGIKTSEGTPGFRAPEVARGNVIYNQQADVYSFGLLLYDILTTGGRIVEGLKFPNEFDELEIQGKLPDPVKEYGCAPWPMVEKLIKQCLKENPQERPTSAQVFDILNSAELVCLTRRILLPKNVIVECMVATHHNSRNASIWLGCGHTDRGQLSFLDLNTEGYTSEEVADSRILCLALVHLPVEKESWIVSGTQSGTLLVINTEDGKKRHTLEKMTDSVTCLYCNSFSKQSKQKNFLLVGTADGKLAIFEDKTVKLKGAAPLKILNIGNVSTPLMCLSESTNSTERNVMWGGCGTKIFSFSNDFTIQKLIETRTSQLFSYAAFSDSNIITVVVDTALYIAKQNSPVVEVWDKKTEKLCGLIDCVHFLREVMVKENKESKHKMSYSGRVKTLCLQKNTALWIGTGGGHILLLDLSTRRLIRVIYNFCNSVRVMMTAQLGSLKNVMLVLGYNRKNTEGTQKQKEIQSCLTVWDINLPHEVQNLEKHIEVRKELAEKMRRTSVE", "test": "Inhibition of purified N-terminal GST-tagged LRRK2 G2019S mutant autophosphorylation activity using myelin basic protein as substrate"}, "[3]": {"molecular_target": "T1, Serine/threonine-protein kinase TAO1 (Homo sapiens) (UniProt Q7L7X3)", "T1 sequence (whole entry)": "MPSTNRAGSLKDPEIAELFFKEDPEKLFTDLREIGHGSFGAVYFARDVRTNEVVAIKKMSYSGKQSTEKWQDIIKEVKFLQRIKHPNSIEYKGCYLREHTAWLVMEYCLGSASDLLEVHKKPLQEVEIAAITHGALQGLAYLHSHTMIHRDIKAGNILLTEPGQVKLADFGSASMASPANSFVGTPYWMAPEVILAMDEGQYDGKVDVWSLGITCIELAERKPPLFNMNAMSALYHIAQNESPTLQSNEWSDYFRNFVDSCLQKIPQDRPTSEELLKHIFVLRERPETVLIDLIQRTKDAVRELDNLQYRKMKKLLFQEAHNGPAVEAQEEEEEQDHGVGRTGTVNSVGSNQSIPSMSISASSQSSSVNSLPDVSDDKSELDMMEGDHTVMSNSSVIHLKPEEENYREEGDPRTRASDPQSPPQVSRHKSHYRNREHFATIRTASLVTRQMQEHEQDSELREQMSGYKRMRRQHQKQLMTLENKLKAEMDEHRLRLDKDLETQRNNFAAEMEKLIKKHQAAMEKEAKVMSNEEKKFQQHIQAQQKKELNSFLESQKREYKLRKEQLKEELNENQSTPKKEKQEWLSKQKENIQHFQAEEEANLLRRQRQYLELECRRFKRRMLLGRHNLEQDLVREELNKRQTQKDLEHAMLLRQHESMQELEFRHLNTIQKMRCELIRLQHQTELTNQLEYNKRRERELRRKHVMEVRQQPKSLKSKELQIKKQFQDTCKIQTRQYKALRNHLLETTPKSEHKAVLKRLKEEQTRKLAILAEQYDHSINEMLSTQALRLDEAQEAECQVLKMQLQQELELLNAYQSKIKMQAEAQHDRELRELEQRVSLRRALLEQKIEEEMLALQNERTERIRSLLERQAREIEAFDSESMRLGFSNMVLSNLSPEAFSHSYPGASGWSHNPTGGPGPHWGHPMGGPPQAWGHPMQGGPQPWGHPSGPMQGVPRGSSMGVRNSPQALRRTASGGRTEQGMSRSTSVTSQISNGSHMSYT", "test": "Inhibition of TAO1 assessed as residual activity of enzyme at 25 uM"}, "[4]": {"molecular_target": "T2, Mitogen-activated protein kinase kinase kinase 5 (Homo sapiens) (UniProt Q99683)", "T2 sequence (whole entry)": "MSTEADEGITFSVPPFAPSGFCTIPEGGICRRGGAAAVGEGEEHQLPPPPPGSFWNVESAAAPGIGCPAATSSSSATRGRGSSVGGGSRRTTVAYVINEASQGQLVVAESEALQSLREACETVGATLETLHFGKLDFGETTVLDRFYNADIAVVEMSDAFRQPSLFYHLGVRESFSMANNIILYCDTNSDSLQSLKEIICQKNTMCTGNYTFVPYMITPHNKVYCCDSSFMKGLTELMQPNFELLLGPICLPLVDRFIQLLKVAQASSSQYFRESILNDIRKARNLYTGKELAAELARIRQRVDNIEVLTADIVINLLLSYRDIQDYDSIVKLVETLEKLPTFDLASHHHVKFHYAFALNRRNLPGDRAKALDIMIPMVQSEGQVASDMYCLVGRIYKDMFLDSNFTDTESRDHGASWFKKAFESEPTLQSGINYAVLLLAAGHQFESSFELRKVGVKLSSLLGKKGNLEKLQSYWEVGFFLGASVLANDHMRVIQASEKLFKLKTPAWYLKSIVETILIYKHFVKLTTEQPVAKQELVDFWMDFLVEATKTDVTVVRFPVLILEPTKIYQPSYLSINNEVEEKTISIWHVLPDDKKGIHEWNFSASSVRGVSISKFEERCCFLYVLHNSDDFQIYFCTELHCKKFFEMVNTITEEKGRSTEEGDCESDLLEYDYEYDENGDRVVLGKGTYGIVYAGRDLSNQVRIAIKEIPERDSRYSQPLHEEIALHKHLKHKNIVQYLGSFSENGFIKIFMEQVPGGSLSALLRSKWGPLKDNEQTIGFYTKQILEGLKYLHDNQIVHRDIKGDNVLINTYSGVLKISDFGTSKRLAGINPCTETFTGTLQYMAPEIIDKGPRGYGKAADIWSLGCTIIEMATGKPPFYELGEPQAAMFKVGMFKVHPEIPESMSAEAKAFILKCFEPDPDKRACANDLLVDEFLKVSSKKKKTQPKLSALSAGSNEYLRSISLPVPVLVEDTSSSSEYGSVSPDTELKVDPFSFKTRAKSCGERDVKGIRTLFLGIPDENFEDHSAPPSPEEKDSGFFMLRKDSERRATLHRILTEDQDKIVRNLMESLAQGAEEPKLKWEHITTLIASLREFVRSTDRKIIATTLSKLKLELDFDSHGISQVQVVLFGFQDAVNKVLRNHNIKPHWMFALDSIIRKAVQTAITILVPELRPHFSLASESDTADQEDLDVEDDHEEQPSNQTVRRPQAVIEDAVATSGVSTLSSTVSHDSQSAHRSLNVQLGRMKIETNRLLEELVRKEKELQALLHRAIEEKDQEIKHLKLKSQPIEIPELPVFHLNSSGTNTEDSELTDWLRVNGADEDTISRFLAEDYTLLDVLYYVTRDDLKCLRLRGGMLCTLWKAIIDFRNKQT", "test": "Inhibition of ASK1 assessed as residual activity of enzyme at 25 uM"}, "[5]": {"molecular_target": "Serine/threonine-protein kinase mTOR (Homo sapiens) (UniProt P42345)", "test": "Inhibition of mTOR assessed as residual activity of enzyme at 10 uM"}, "[6]": {"test": "Neurotoxicity in rat primary cortical neurons assessed as cell survival at 10 uM after 24 hrs by MTT assay", "format": "toxicity, cell-based, Cerebral cortex neuron", "details": "read-out: Activity"}, "[7]": {"molecular_target": "Cyclin-dependent kinase 5/CDK5 activator 1 (Homo sapiens) (UniProt Q00535+Q15078)", "sequence (Q00535 whole entry)": "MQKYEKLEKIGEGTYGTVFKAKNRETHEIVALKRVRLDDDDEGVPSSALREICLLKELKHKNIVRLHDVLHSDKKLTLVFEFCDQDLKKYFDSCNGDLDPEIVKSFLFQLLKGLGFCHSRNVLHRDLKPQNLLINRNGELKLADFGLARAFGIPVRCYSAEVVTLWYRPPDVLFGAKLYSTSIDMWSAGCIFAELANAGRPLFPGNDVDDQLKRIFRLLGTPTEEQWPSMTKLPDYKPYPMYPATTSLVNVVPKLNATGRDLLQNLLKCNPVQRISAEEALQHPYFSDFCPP", "sequence (Q15078 99-307 partner limits assumed)": "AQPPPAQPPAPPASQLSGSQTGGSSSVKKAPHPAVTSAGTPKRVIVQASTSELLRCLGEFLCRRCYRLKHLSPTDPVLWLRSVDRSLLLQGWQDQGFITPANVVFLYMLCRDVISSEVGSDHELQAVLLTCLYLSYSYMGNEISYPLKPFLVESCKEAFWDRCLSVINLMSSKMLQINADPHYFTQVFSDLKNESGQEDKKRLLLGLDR", "test": "Inhibition of CDK5/p25 assessed as residual activity of enzyme at 10 uM", "format": "protein-complex assay"}, "[8]": {"tested_on": "Leucine-rich repeat serine/threonine-protein kinase 2 (Homo sapiens), Q5S007 [G2019S]", "sequence (Q5S007 whole entry G2019S)": "as the sequence (Q5S007 whole entry G2019S) above", "test": "Inhibition of purified N-terminal GST-tagged LRRK2 G2019S mutant assessed as residual activity of enzyme at 10 uM"}}}
{"smiles": "Cc1cc(N/N=C/c2ccncc2)nc2ccccc12", "values": [{"measurement": "Activity", "setting": "[1]", "value": 77, "unit": "%"}, {"measurement": "IC50", "setting": "[2]", "value": 4.1, "unit": "µM"}, {"measurement": "Activity", "setting": "[3]", "value": 84, "unit": "%"}, {"measurement": "Activity", "setting": "[4]", "value": 68, "unit": "%"}, {"measurement": "Activity", "setting": "[5]", "value": 103, "unit": "%"}, {"measurement": "viability at 24 h, 10 µM", "setting": "[6]", "value": 85, "unit": "%"}, {"measurement": "Activity", "setting": "[7]", "value": 97, "unit": "%"}, {"measurement": "Activity", "setting": "[8]", "value": 28, "unit": "%"}]}
